Laboratory results as given in ChEMBL document CHEMBL4507281, “Data for DCP probe BI-4394” (2021).

How the values were obtained:
[1] = target: Cyclin-dependent kinase 11B (Homo sapiens) (UniProt P21127); details: Compound concentration 100.0 nM
[2] = target: Citron Rho-interacting kinase (Homo sapiens) (UniProt O14578); details: Compound concentration 100.0 nM
[3] = target: Casein kinase I isoform gamma-1 (Homo sapiens) (UniProt Q9HCP0); details: Compound concentration 100.0 nM
[4] = target: Mitogen-activated protein kinase kinase kinase 12 (Homo sapiens) (UniProt Q12852); details: Compound concentration 100.0 nM
[5] = system: Epidermal growth factor receptor (Homo sapiens), P00533 [G719S]; details: Compound concentration 100.0 nM
[6] = system: Epidermal growth factor receptor (Homo sapiens), P00533 [UNDEFINED MUTATION]; details: Compound concentration 100.0 nM
[7] = target: Ephrin type-A receptor 8 (Homo sapiens) (UniProt P29322); details: Compound concentration 100.0 nM
[8] = target: Ephrin type-B receptor 6 (Homo sapiens) (UniProt O15197); details: Compound concentration 100.0 nM
[9] = target: Mitogen-activated protein kinase 3 (Homo sapiens) (UniProt P27361); details: Compound concentration 100.0 nM
[10] = target: Mitogen-activated protein kinase 7 (Homo sapiens) (UniProt Q13164); details: Compound concentration 100.0 nM
[11] = system: Receptor-type tyrosine-protein kinase FLT3 (Homo sapiens), P36888 [K663Q]; details: Compound concentration 100.0 nM
[12] = target: Tyrosine-protein kinase FRK (Homo sapiens) (UniProt P42685); details: Compound concentration 100.0 nM
[13] = target: T1, Inhibitor of nuclear factor kappa-B kinase subunit beta (Homo sapiens) (UniProt O14920); details: Compound concentration 100.0 nM
T1 sequence (whole entry): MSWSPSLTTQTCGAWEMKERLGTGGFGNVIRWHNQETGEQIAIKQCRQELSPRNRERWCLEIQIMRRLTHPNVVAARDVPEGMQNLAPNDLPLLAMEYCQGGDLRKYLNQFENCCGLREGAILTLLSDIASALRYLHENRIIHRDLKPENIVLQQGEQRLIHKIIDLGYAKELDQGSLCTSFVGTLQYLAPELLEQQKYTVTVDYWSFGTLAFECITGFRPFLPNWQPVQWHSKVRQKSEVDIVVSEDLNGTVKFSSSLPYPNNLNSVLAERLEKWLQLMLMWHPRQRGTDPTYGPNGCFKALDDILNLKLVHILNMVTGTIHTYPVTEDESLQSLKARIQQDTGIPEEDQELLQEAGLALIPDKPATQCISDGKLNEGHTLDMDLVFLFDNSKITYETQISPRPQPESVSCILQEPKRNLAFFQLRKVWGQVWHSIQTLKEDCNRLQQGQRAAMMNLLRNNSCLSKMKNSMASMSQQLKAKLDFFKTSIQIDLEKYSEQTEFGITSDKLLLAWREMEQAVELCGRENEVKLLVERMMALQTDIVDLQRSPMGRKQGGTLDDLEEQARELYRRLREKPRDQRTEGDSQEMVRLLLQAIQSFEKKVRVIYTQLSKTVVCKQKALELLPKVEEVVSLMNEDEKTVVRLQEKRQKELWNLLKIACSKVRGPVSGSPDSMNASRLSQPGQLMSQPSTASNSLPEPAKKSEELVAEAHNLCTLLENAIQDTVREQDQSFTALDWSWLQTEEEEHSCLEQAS

[14] = target: Mitogen-activated protein kinase kinase kinase 1 (Homo sapiens) (UniProt Q13233); details: Compound concentration 100.0 nM
[15] = target: Serine/threonine-protein kinase MRCK beta (Homo sapiens) (UniProt Q9Y5S2); details: Compound concentration 100.0 nM
[16] = target: Macrophage-stimulating protein receptor (Homo sapiens) (UniProt Q04912); details: Compound concentration 100.0 nM
[17] = target: Serine/threonine-protein kinase Nek7 (Homo sapiens) (UniProt Q8TDX7); details: Compound concentration 100.0 nM
[18] = target: Phosphatidylinositol 4,5-bisphosphate 3-kinase catalytic subunit delta isoform (Homo sapiens) (UniProt O00329); details: Compound concentration 100.0 nM
[19] = target: Phosphatidylinositol 5-phosphate 4-kinase type-2 beta (Homo sapiens) (UniProt P78356); details: Compound concentration 100.0 nM
[20] = target: Membrane-associated tyrosine- and threonine-specific cdc2-inhibitory kinase (Homo sapiens) (UniProt Q99640); details: Compound concentration 100.0 nM
[21] = target: Protein kinase C theta type (Homo sapiens) (UniProt Q04759); details: Compound concentration 100.0 nM
[22] = target: Serine/threonine-protein kinase SBK1 (Homo sapiens) (UniProt Q52WX2); details: Compound concentration 100.0 nM
[23] = target: Mitogen-activated protein kinase kinase kinase 20 (Homo sapiens) (UniProt Q9NYL2); details: Compound concentration 100.0 nM
[24] = target: T2, Tyrosine-protein kinase ZAP-70 (Homo sapiens) (UniProt P43403); details: Compound concentration 100.0 nM
T2 sequence (whole entry): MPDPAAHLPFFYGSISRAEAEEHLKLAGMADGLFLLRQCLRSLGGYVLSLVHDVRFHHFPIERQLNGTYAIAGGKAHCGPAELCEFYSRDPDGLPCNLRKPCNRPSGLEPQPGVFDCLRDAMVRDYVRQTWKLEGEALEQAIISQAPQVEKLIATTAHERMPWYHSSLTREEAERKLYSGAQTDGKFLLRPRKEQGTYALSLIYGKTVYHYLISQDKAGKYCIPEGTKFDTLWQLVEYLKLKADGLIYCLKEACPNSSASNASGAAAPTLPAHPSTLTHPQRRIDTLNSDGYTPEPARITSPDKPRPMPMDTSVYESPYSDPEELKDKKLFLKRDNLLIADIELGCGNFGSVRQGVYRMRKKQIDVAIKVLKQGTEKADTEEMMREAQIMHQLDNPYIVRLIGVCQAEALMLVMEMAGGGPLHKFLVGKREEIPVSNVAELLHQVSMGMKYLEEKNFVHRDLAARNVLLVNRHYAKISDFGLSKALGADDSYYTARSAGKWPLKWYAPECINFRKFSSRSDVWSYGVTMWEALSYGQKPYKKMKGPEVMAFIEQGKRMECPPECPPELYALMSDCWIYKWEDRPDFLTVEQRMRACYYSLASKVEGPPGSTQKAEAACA

[25] = target: Muscarinic acetylcholine receptor M4 (Homo sapiens) (UniProt P08173); details: Compound concentration 10.0 uM
[26] = target: Beta-3 adrenergic receptor (Homo sapiens) (UniProt P13945); details: Compound concentration 10.0 uM

Chain of Cyclin-dependent kinase 11B (Homo sapiens) (P21127 whole entry): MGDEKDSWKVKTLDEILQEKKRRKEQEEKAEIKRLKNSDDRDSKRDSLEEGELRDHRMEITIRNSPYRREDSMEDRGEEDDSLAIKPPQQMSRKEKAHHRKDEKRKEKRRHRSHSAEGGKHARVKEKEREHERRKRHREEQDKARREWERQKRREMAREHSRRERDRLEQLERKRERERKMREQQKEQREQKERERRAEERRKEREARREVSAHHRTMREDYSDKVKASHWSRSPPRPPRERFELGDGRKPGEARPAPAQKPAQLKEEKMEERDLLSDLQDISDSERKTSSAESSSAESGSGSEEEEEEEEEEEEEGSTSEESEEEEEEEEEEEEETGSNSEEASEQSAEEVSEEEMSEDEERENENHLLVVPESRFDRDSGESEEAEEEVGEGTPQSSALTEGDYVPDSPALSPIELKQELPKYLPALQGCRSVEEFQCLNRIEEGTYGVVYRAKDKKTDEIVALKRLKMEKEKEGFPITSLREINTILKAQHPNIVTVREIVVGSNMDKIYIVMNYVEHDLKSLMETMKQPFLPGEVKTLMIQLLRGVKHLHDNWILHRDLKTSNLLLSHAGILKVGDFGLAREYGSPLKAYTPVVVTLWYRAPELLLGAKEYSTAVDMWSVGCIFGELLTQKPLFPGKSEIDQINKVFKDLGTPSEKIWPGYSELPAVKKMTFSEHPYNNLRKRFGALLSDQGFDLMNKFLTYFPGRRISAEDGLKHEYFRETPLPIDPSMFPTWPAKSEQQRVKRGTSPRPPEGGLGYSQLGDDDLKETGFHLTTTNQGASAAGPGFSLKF
Chain of Citron Rho-interacting kinase (Homo sapiens) (O14578 whole entry, canonical isoform): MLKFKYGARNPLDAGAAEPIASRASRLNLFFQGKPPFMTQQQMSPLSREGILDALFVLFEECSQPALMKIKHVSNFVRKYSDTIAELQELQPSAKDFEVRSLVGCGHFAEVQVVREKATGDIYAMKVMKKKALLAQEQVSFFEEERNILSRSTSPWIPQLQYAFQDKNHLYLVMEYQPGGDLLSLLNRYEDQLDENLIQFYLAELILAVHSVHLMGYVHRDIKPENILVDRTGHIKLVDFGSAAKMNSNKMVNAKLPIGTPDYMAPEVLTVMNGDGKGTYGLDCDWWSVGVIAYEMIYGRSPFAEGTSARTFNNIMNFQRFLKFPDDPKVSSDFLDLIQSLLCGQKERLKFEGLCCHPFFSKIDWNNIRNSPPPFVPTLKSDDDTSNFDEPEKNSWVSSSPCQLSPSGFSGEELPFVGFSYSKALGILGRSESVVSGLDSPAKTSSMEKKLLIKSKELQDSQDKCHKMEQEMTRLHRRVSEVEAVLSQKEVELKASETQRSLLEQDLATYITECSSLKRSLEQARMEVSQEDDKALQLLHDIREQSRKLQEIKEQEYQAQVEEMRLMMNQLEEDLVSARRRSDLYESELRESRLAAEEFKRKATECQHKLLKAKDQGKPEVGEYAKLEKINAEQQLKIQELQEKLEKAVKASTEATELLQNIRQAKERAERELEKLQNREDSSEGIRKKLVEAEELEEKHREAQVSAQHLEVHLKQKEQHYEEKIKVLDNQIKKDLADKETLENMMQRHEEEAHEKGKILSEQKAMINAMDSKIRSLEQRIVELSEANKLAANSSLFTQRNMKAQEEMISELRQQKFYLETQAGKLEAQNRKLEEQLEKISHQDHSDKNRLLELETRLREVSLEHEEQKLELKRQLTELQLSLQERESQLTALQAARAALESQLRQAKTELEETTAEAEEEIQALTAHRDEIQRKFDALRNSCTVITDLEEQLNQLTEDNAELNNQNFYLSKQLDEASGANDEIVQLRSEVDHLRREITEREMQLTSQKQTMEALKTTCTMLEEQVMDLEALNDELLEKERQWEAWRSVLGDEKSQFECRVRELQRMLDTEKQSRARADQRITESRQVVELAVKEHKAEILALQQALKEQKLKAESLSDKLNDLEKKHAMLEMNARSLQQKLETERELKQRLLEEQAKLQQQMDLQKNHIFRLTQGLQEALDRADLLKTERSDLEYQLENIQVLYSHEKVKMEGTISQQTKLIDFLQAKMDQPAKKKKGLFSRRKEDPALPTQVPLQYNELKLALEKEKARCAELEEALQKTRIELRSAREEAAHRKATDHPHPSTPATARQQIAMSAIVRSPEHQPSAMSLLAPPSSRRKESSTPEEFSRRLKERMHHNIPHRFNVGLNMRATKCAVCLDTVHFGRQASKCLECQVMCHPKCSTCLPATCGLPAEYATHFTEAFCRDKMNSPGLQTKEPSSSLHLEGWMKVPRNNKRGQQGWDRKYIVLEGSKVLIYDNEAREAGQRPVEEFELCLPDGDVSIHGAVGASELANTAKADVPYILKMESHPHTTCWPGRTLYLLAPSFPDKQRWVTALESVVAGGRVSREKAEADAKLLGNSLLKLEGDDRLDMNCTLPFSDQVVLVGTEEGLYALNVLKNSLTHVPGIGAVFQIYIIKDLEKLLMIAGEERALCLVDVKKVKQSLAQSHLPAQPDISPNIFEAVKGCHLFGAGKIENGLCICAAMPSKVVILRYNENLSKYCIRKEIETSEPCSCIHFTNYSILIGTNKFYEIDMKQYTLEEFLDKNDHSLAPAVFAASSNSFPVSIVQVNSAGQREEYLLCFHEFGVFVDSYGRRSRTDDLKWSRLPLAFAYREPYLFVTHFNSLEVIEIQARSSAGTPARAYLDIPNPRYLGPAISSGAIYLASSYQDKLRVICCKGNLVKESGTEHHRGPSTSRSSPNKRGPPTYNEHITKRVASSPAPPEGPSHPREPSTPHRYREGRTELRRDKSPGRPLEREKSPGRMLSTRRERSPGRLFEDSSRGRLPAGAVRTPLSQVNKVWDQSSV
Chain of Phosphatidylinositol 5-phosphate 4-kinase type-2 beta (Homo sapiens) (P78356 whole entry): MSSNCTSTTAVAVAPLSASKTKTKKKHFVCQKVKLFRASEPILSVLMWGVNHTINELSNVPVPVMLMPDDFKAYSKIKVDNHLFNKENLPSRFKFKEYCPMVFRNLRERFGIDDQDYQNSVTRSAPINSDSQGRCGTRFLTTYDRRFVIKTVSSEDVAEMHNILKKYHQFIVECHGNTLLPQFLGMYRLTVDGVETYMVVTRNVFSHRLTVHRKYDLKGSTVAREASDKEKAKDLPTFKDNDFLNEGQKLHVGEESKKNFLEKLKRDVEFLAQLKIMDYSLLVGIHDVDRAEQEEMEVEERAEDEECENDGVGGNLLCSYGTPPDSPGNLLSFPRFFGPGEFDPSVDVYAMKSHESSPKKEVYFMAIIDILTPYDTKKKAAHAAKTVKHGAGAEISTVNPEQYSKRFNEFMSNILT
Chain of Mitogen-activated protein kinase kinase kinase 1 (Homo sapiens) (Q13233 whole entry): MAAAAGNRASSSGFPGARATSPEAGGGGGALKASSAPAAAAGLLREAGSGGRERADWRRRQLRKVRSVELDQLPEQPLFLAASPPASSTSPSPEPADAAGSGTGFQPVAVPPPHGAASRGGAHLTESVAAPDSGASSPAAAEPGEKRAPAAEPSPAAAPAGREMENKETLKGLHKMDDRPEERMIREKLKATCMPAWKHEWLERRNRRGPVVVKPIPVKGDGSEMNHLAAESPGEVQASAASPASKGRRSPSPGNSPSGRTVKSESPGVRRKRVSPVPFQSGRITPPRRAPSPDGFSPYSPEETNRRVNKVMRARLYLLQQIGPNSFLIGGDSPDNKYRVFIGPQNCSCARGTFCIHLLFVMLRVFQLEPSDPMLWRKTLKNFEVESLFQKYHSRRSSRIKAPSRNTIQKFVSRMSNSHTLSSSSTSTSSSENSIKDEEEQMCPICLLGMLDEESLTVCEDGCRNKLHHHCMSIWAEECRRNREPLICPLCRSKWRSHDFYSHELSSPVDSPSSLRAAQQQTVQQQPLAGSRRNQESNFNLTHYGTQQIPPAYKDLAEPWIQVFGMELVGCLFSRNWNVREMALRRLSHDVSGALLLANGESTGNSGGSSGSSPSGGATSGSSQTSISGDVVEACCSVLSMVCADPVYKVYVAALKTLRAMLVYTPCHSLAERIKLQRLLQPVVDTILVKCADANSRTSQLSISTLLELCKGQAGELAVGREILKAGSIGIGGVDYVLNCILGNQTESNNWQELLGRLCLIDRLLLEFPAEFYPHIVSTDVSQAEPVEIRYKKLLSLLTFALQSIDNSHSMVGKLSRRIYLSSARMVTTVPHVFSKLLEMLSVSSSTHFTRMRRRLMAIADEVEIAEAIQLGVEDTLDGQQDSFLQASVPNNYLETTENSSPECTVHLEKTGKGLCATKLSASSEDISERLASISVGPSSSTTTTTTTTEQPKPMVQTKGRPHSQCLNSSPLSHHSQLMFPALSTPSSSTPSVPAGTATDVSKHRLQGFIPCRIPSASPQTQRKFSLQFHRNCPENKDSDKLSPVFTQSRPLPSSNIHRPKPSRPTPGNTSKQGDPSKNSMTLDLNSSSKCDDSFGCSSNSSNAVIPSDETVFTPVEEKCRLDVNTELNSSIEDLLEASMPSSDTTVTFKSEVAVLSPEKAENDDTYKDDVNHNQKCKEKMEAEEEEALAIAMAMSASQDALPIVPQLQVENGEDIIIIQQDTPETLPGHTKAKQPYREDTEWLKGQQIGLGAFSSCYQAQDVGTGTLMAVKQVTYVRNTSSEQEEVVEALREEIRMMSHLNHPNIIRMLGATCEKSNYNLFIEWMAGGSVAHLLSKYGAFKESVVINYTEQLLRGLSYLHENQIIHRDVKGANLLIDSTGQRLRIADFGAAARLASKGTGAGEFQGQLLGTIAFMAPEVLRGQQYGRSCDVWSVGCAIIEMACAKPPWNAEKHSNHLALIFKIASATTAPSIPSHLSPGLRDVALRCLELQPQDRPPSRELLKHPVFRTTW
Chain of Mitogen-activated protein kinase 3 (Homo sapiens) (P27361 whole entry): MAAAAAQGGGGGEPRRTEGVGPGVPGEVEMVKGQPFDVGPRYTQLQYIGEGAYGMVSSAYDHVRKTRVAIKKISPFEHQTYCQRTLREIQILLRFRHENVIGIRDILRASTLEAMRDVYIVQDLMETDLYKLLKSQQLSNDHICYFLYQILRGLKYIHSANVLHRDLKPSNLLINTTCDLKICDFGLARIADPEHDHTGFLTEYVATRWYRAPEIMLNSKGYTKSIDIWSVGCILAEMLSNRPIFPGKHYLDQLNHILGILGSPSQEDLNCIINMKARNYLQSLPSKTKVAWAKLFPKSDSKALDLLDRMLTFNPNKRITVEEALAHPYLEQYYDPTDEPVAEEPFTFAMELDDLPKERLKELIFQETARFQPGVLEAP

CCOC(=O)c1cc2cc(-c3cc(C(=O)NCc4ccc(C(=O)O)cc4)nn3C)ccc2[nH]1 [BI 4394]
inactive: residual activity [1] 98% | residual activity [2] 100% | residual activity [3] 100% | residual activity [4] 79% | residual activity [5] 100% | residual activity [6] 94% | residual activity [7] 100% | residual activity [8] 77% | residual activity [9] 88% | residual activity [10] 100% | residual activity [11] 90% | residual activity [12] 100% | residual activity [13] 100% | residual activity [14] 90% | residual activity [15] 88% | residual activity [16] 100% | residual activity [17] 100% | residual activity [18] 65% | residual activity [19] 100% | residual activity [20] 100% | residual activity [21] 97% | residual activity [22] 90% | residual activity [23] 87% | residual activity [24] 98% | inhibition [25] -6.49% | inhibition [26] -6.63%

Cn1nc(C(=O)NCc2ccc(C(=O)O)cc2)cc1-c1ccc2[nH]ccc2c1 [BI 4395]
inactive: residual activity [1] 93% | residual activity [2] 59% | residual activity [3] 91% | residual activity [4] 100% | residual activity [5] 66% | residual activity [6] 92% | residual activity [7] 92% | residual activity [8] 96% | residual activity [9] 94% | residual activity [10] 87% | residual activity [11] 86% | residual activity [12] 100% | residual activity [13] 93% | residual activity [14] 65% | residual activity [15] 100% | residual activity [16] 100% | residual activity [17] 98% | residual activity [18] 97% | residual activity [19] 93% | residual activity [20] 93% | residual activity [21] 99% | residual activity [22] 77% | residual activity [23] 80% | residual activity [24] 82% | inhibition [25] 0.05% | inhibition [26] 2.13%
